Data on four compounds can be found in patent EP3461480A1, “COMBINATION OF A DNA DAMAGE RESPONSE CELL CYCLE CHECKPOINT INHIBITORS AND BELINOSTAT FOR TREATING CANCER” (ONXEO, priority 2017, dated 2019).

Assay type in all cases: cell-based
The subject of data set [1] is triple negative breast cancer (TBNC) cell line MDA-MB-231. Put plainly: XTT cell survival assay and CalcuSyn combination index, MDA-MB-231. The following applies: Homo sapiens, monotherapy, XTT assay, dose at which 50% of the cells are viable. The protocol:
(§1) Cell cultures were performed with the triple negative breast cancer (TBNC) cell line MDA-MB-231, the histiocytic lymphoma cell line U937 and the non-tumor mammary cell line MCF-10A. Cells were grown according to the supplier's instructions. Cell lines were maintained at 37°C in a humidified atmosphere at 5% CO2, except the MDA-MB-231 cell line which was maintained at 0% CO2.
(§2) In a first step, the characterization of the effect of drugs monotherapy on cell survival (tumour and non-tumour cells) was performed. MDA-MB-231 (5.10^3 cells/well), MCF-10A (5.10^3 cells/well) and U937 (2.10^4 cells/well) were seeded in 96 well-plates and incubated 24 hours at +37°C before addition of the drug at increasing concentrations for 4 to 7 days. Following drug exposure, cell survival was measured using the XTT assay (Sigma Aldrich). Briefly, the XTT solution was added directly to each well containing cell culture and the cells incubated for 4 to 24 hours at 37°C before reading the absorbance at 490 nm and 690 nm using a microplate reader (BMG Fluostar, Galaxy). Cell survival is calculated as the ratio of living treated cells to living mock-treated cells. The IC50 (which represents the dose at which 50% of the cells are viable) is calculated by a non-linear regression model using GraphPad Prism software (version 5.04) by plotting the percentage viability against the Log of the drug concentration on each cell line.
In a second step, analysis and quantification of the drug combination efficacy were performed. Cells were seeded in 96-well plates at the appropriate densities and treated with belinostat (PXD-101 - Spectrum) and/or ATR (ATRi - AZD6738, Selleckchem; VE-821, Selleckchem) simultaneously during 4 to 7days. Belinostat + ATRi combinations was performed at a constant ratio (from IC50/8 to IC50*8) as previously described (Chou TC, Talalay P. Adv Enzyme Regul. 1984;22:27-55 (Quantitative analysis of dose-effect relationships: the combined effects of multiple drugs or enzyme inhibitors). Cell survival was measured using the XTT assay (see above).
Combination efficacy is evaluated by "the combination index (CI)" which is determined using the CalcuSyn software tool based on the Chou Talalay method. A CI could be interpreted as follows: CI<1, =1, and >1 indicate synergism; additive effect and antagonism, respectively (CalculSyn manual, Biosoft, 2006). Note that we define synergism as a more than expected additive effect, and antagonism as a less than expected additive effect. […]
(§3) In a second step, analysis and quantification of the drug combination efficacy were performed. […] Cell survival is measured using the XTT assay (see above).
(§4) Combination efficacy is evaluated by "the combination index (CI)" which was determined using the CalcuSyn software tool based on the Chou Talalay method. […]

Data set [2] relates to histiocytic lymphoma cell line U937. Put plainly: XTT cell survival assay and CalcuSyn combination index, U937. The note with it: Homo sapiens, U-937, monotherapy, XTT assay, dose at which 50% of the cells are viable. The protocol: as §1
as §2, with “The IC50 (which represents the dose at which 50% of the cells are viable) is calculated by a non-linear regression model using GraphPad Prism software (version 5.04) by plotting the percentage viability against the Log of the drug concentration on each cell line.” left out
In a second step, analysis and quantification of the drug combination efficacy were performed. […] Belinostat + ATRi combinations was performed at a constant ratio (from IC50/8 to IC50*8) as previously described (Chou TC, Talalay P. Adv Enzyme Regul. 1984;22:27-55 (Quantitative analysis of dose-effect relationships: the combined effects of multiple drugs or enzyme inhibitors). Cell survival was measured using the XTT assay (see above).
Combination efficacy is evaluated by "the combination index (CI)" which is determined using the CalcuSyn software tool based on the Chou Talalay method. […]
as §3, §4

Data set [3] relates to non-tumor mammary cell line MCF-10A. Put plainly: XTT cell survival assay, non-tumor cells MCF-10A. The note with it: same drug doses as MDA-MB-231, 7 days; for sensitivity of non-tumor cells: XTT survival.
Description: Following drug exposure, cell survival was measured using the XTT assay (Sigma Aldrich). […] Following drug exposure, cell survival was measured using the XTT assay (Sigma Aldrich).

Consider `CS(=O)(=O)c1ccc(-c2cnc(N)c(C(=O)Nc3ccccc3)n2)cc1` [VE-821, 3-amino-6-(4-methylsulfonylphenyl)-N-phenylpyrazine-2-carboxamide], for which, in data set [1], the IC50 is 18000 nM.

As to `Cc1cnc(NC(=O)Nc2cc(Br)c(C)cc2OC[C@@H]2CNCCO2)cn1` [LY2603618, 1-[5-bromo-4-methyl-2-[[(2S)-morpholin-2-yl]methoxy]phenyl]-3-(5-methylpyrazin-2-yl)urea], the IC50 was 3200 nM in data set [1] and 1100 nM in data set [2]. In data set [3], the “sensitivity of non-tumor cells” value is “showed a sensitivity”.

On to `O=C(/C=C/c1cccc(S(=O)(=O)Nc2ccccc2)c1)NO` [Belinostat, (2E)-N-hydroxy-3-[3-(phenylsulfamoyl)phenyl]prop-2-enamide], for which the IC50 in data set [1] and in data set [2] was 250 nM each time. For the same compound, the “sensitivity of non-tumor cells” value in data set [3] was “insensitive”.

In the case of `C[C@@H]1COCCN1c1cc(C2([S@](C)(=N)=O)CC2)nc(-c2cc[nH]c3nccc2-3)n1` [AZD6738, 4-[4-[1-[[S(R)]-S-methylsulfonimidoyl]cyclopropyl]-6-[(3R)-3-methyl-4-morpholinyl]-2-pyrimidinyl]-1H-pyrrolo[2,3-b]pyridine], the IC50 in data set [1] is 2500 nM; in data set [2], 500 nM. Moreover, in data set [3] (inhibitor plus belinostat), the “sensitivity of non-tumor cells on adding belinostat” value was “didn't increase”. Further, the “sensitivity of non-tumor cells” value in data set [3] is “showed a sensitivity”.
